From PMC3497017, “Antioxidant and Anti-Protease Activities of Diazepinomicin from the Sponge-Associated Micromonospora Strain RV115” (Marine Drugs, 2012)

Molecular target: T1, human cathepsin L (Homo sapiens, UniProt P07711)
T1 construct: gene CTSL
Test: fluorogenic Cbz-Phe-Arg-AMC hydrolysis with inner-filter correction, confirmed by HPLC-based assay
Type: biochemical

T1 sequence (P07711 114-288): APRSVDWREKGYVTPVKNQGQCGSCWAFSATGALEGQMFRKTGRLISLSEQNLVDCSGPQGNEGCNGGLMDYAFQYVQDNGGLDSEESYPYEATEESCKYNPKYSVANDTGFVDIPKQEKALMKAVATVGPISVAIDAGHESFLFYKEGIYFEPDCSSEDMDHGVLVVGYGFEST
T1 sequence (P07711 292-333): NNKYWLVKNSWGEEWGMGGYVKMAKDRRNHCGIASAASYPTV

IC50: 72.4 ± 5.3 µM
SMILES: CC(C)=CCC/C(C)=C/CC/C(C)=C/CN1C(=O)c2cccc(O)c2Nc2c(O)cc(O)cc21 [compound 1, diazepinomicin]
